In patent US8853206B2, “Triazolium salts as PAR1 inhibitors, production thereof, and use as medicaments” (Sanofi, priority 2008, dated 2014):
Where a name gives a salt, the structure may show the parent alone.

Target: T1, PAR1 (Homo sapiens (Human), UniProt P25116)
Test: Inhibition of PAR1-mediated platelet aggregation induced by TRAP
Assay type: cell-based
Conditions: TRAP-induced aggregation of washed platelets from healthy volunteer donors, 96-well format
Procedure: PAR1 Determination Method: Inhibition of PAR1-Mediated Platelet Aggregation The pharmacological testing of the substances took place in platelet aggregation induced by TRAP (thrombin receptor-activating peptide) in 96-well format. For this purpose, blood was taken from healthy volunteer donors in 20 ml syringes containing 2 ml of 3.13% sodium citrate solution. After centrifugation at 150×g for 20 minutes, the platelet-rich plasma (PRP) was separated off and mixed with 1 μl of PGE1 solution (500 μg/ml in ethanol)/ml of PRP. Incubation at RT for 5 minutes was followed by centrifugation at 120×g for 15 minutes to remove the leukocytes. The leukocyte-free PRP was transferred in 5 ml portions into 15 ml PP tubes and centrifuged at 360×g for 15 minutes in order to pellet the platelets. The plasma was then decanted off and the platelet sediment from 5 ml of PRP was resuspended in 1 ml of Tyrode's (120 mM NaCl, 2.6 mM KCl, 12 mM NaHCO3, 0.39 mM NaH2PO4×H2O, 10 mM HEPES, 0.35% BSA, 5.5 mM glucose, pH 7.4) and adjusted with Tyrode's to a platelet count of 3×10^5/microliter (4). 13 ml of this cell suspension were then mixed with 866 μL of 10 mM CaCl2 solution, and 120 μL thereof were pipetted into each well of a 96-well plate containing 15 μL of the substance to be tested. After incubation at RT in the dark for 30 minutes, 15 μL of a TRAP solution (70-100 μM) were added as agonist, and kinetics were recorded at 650 nm in a SpectraMax 340 at 37° C. for 20 minutes while shaking. The areas under the curves of negative control (Tyrode's/DMSO) and positive control (15 μl of agonist/DMSO) were calculated and the difference was fixed as the 100% value. The substances to be tested were pipetted as serial dilutions in duplicate determination, the AUC was likewise determined for each substance concentration, and the % inhibition of the AUC compared with the control was calculated. On the basis of the % inhibition, the IC50 was calculated by nonlinear regression analysis according to the 4-parameter equation.

T1 sequence (P25116 22-425): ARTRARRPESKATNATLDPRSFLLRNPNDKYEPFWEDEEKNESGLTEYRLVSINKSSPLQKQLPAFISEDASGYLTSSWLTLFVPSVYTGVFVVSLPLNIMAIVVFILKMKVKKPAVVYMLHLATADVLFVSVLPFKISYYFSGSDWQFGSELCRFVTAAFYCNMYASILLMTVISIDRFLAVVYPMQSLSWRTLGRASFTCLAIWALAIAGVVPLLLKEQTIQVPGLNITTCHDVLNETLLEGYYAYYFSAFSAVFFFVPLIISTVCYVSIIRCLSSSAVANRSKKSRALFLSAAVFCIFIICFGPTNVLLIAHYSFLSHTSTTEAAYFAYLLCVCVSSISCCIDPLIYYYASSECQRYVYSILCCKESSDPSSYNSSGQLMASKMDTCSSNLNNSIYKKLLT

SMILES | IC50
CCCCOc1ccc2n(n1)c(N)n[n+]2CC(=O)c1cc(COC)cc(C(C)(C)C)c1 [Example 39, 3-Amino-6-butoxy-1-[2-(3-tert-butyl-5-methoxymethylphenyl)-2-oxoethyl]-[1,2,4]triazolo[4,3-b]pyridazin-1-ium chloride] | 37 nM
CCC(CC)Oc1ccc2n(n1)c(N)n[n+]2CC(=O)c1cc(OC)c(OC)c(OCC2CCCCC2)c1 [Example 38, 3-Amino-1-[2-(3-cyclohexylmethoxy-4,5-dimethoxyphenyl)-2-oxoethyl]-6-(1-ethylpropoxy)-[1,2,4]triazolo[4,3-b]pyridazin-1-ium chloride] | 240 nM
CC(C)(C)c1cc(C(=O)C[n+]2nc(N)n3ccccc32)cc(C(C)(C)C)c1O [Example 3, 3-Amino-1-[2-(3,5-di-tert-butyl-4-hydroxyphenyl)-2-oxoethyl]-[1,2,4]triazolo[4,3-a]pyridin-1-ium trifluoroacetate] | 1080 nM
CCOc1ccc2n(n1)c(N)n[n+]2CC(=O)c1cc(NC(C)=O)cc(S(F)(F)(F)(F)F)c1 [Example 1, 1-{2-[3-Acetylamino-5-(pentafluorosulfanyl)phenyl]-2-oxoethyl}-3-amino-6-ethoxy-[1,2,4]triazolo[4,3-b]pyridazin-1-ium trifluoroacetate] | < 14 nM
COc1c(N2CCOCC2)cc(C(=O)C[n+]2nc(N)n3cc(C(F)(F)F)ccc32)cc1C(C)(C)C [Example 4, 3-Amino-1-[2-(3-tert-butyl-4-methoxy-5-morpholin-4-ylphenyl)-2-oxoethyl]-6-trifluoromethyl-[1,2,4]triazolo[4,3-a]pyridin-1-ium trifluoroacetate] | 126 nM
CCC(CC)Oc1ccc2n(n1)c(N)n[n+]2CC(=O)c1cc(OC)cc(S(F)(F)(F)(F)F)c1 [Example 26, 3-Amino-6-(1-ethylpropoxy)-1-{2-[3-methoxy-5-(pentafluorosulfanyl)phe-nyl]-2-oxoethyl}-[1,2,4]triazolo[4,3-b]pyridazin-1-ium trifluoroacetate] | 5 nM

Second part, the molecule after the results:

IC50 | SMILES
4400 nM | CCOC(=O)c1cn2c(N)n[n+](CC(=O)c3cc(N4CCOCC4)c(OC)c(C(C)(C)C)c3)c2cc1OCC [Example 8, 3-Amino-1-[2-(3-tert-butyl-4-methoxy-5-morpholin-4-yl-phenyl)-2-oxoethyl]-7-ethoxy-6-ethoxycarbonyl-[1,2,4]triazolo[4,3-a]pyridin-1-ium trifluoroacetate]
6 nM | CCOc1cc(C(=O)C[n+]2nc(N)n3nc(OC(CC)CC)ccc32)cc(C(C)(C)C)c1 [Example 32, 3-Amino-1-[2-(3-tert-butyl-5-ethoxyphenyl)-2-oxoethyl]-6-(1-ethylpropoxy)-[1,2,4]triazolo[4,3-b]pyridazin-1-ium chloride]

Target: T1, PAR1
Test: PAR1 binding test (radioligand displacement, membrane preparation)
Conditions: human PAR1 expressed in High Five insect cell membranes; radioligand 20 nM; read-out: Inhibition of binding IC50
Procedure: The synthesized substances were examined in a PAR1 binding test. This tested whether the substances can inhibit the binding of a radioactively labeled PAR1 agonist known from the literature at the PAR1 receptor (Ho-Sam Ahn, Mol Pharm, 51:350-356, 1997).
The human PAR1 receptor was expressed transiently in High Five insect cells. From these cells, after 48 hours, a membrane preparation was produced by standard methods, aliquoted into 10 mM Tris-HCl; 0.3 mM EDTA; 1 mM EGTA; 250 mM sucrose pH 7.5, and stored at −80° C.
The substances were preincubated with the membrane at RT for 15 minutes, then the radioligand (ALA-(para-F-Phe)-Arg-ChA-homoArg-(3,4-^3H-Tyr)-NH2; approx. 40 Ci/mMol) was added. The end concentration of the radioligand in the test buffer (50 mM Tris-HCl; 10 mM MgCl2; 1 mM EGTA; 0.1% BSA; 2% DMSO) was 20 nM, that of the membrane 1 mg/ml. After an incubation time of 60 minutes, 25 μL of the mixture were transferred to a 96-well MultiScreenHTS FB microtiter filtration plate (from Millipore), which had been pretreated beforehand with a 0.75% aqueous polyethyleneimine solution for 5 hours at RT. Thereafter, with vacuum extraction, each well was washed four times with 300 μL of buffer (50 mM Tris-HCl; 10 mM MgCl2; 1 mM EGTA). The plate was then dried overnight, 100 μl of scintillator per well were added, and the plate was analyzed after 6 hours in a Wallac MicroBeta (from PerkinElmer) liquid scintillation counter. The nonspecific binding was determined in the presence of 100 μM SCH79797 (PAR-1 antagonist; from Tocris, Cat. No. 1592) and subtracted from all measurements. The 100% value used was a control without inhibitor. The % inhibition values of a substance dilution series were used to calculate the IC50 with the aid of nonlinear regression analysis according to the 4-parameter equation.

SMILES | IC50
CCOc1nn2c(NC)n[n+](CC(=O)c3cc(N4CCOCC4)c(OC)c(C(C)(C)C)c3)c2c(C)c1C [Example 72, 1-[2-(3-tert-Butyl-4-methoxy-5-morpholin-4-ylphenyl)-2-oxoethyl]-6-ethoxy-7,8-dimethyl-3-methylamino-[1,2,4]triazolo[4,3-b]pyridazin-1-ium trifluoroacetate] | 1700 nM
CCc1ccc2n(n1)c(N)n[n+]2CC(=O)c1cc(N2CCOCC2)c(OC)c(C(C)(C)C)c1 [Example 60, 3-Amino-1-[2-(3-tert-butyl-4-methoxy-5-morpholin-4-ylphenyl)-2-oxoethyl]-6-ethyl-[1,2,4]triazolo[4,3-b]pyridazin-1-ium trifluoroacetate] | 2100 nM
CCC(CC)Oc1ccc2n(n1)c(N)n[n+]2CC(=O)c1cc(OC)cc(C(C)C)c1 [Example 46, 3-Amino-6-(1-ethylpropoxy)-1-]2-(3-isopropyl-5-methoxyphenyl)-2-oxoethyl]-[1,2,4]triazolo[4,3-b]pyridazin-1-ium chloride] | 114 nM
CCC(CC)Oc1ccc2n(n1)c(N)n[n+]2CC(=O)c1cc(OCC2CC2)cc(C(C)(C)C)c1 [Example 35, 3-Amino-1-[2-(3-tert-butyl-5-cyclopropylmethoxyphen-yl)-2-oxoethyl]-6-(1-ethylpropoxy)-[1,2,4]triazolo[4,3-b]pyridazin-1-ium chloride] | 132 nM
CCC(CC)Oc1ccc2n(n1)c(N)n[n+]2CC(=O)c1cc(Cl)cc(OC)c1 [Example 40, 3-Amino-1-[2-(3-chloro-5-methoxyphenyl)-2-oxoethyl]-6-(1-ethylpropoxy)-[1,2,4]triazolo[4,3-b]pyridazin-1-ium chloride] | 601 nM
CCC(CC)Oc1ccc2n(n1)c(N)n[n+]2CC(=O)c1cc(OC)cc(OCC2CCCCC2)c1 [Example 47, 3-Amino-1-[2-(3-cyclohexylmethoxy-5-methoxyphenyl)-2-oxoethyl]-6-(1-ethylpropoxy)-[1,2,4]triazolo[4,3-b]pyridazin-1-ium chloride] | 10000 nM

The remaining lines, values ahead:

IC50 | SMILES
85 nM | CCC(CC)Oc1ccc2n(n1)c(N)n[n+]2CC(=O)c1cc(OCCOC)cc(C(C)(C)C)c1 [Example 54, 3-Amino-1-{2-[3-tert-butyl-5-(2-methoxyethoxy)phenyl]-2-oxoethyl}-6-(1-ethylpropoxy)-[1,2,4]triazolo[4,3-b]pyridazin-1-ium chloride]
136 nM | CCOc1cc(C(=O)C[n+]2nc(N)n3nc(OC(CC)CC)ccc32)cc(C(C)(C)C)c1OCC [Example 29, 3-Amino-1-[2-(3-tert-butyl-4,5-diethoxyphenyl)-2-oxoethyl]-6-(1-ethylpropoxy)-[1,2,4]triazolo[4,3-b]pyridazin-1-ium chloride]
152 nM | CCOCc1cc(C(=O)C[n+]2nc(N)n3nc(OC(CC)CC)ccc32)cc(C(C)(C)C)c1 [Example 27, 3-Amino-1-[2-(3-tert-butyl-5-ethoxymethylphenyl)-2-oxoethyl]-6-(1-ethylpropoxy)-[1,2,4]triazolo[4,3-b]pyridazin-1-ium chloride]
8400 nM | CCOc1nn2c(N)n[n+](CC(=O)c3cc(OCCCO)c(OC)c(C(C)(C)C)c3)c2cc1CC [Example 82, 3-Amino-1-{2-[3-tert-butyl-5-(3-hydroxypropoxy)-4-methoxyphenyl]-2-oxoethyl}-6-ethoxy-7-ethyl-[1,2,4]triazolo[4,3-b]pyridazin-1-ium chloride]
1400 nM | CCC(CC)Oc1nn2c(N)n[n+](CC(=O)c3cc(N4CCOCC4)c(OC)c(C(C)(C)C)c3)c2cc1C1CC1 [Example 76, 3-Amino-1-[2-(3-tert-butyl-4-methoxy-5-morpholin-4-ylphenyl)-2-oxoethyl]-7-cyclopropyl-6-(1-ethylpropoxy)-[1,2,4]triazolo[4,3-b]pyridazin-1-ium chloride]
